# Source: ChEMBL document CHEMBL5727760, “Pyrrolidine derivatives” (2020)
# Target: Cathepsin S (Homo sapiens, UniProt P25774)
# Assay: Enzyme Inhibition Assay: Enzyme activity is measured by observing the increase in fluorescence intensity caused by cleavage of a peptide substrate containing a fluorophore whose emission is quenched in the intact peptide.Assay buffer: 100 mM potassium phosphate pH 6.5, EDTA-Na 5 mM, Triton X-100 0.001%, DTT 5 mM.Enzymes (all at 1 nM): human and mouse Cathepsin S, Cat K, Cat B, Cat L.Substrate (20 μM): Z-Val-Val-Arg-AMC, except for Cat K which uses Z-Leu-Arg-AMC (both from Bachem).Z=Benzyloxycarbonyl.AMC=7-Amino-4-Methyl-Coumarin.DTT=dithiothreitol.Final volume: 100 μL.Excitation 360 nm, Emission 465 nm.Enzyme is added to the substance dilutions in 96-well microtitre plates and the reaction is started with substrate.
# Chain of Cathepsin S (P25774 whole entry): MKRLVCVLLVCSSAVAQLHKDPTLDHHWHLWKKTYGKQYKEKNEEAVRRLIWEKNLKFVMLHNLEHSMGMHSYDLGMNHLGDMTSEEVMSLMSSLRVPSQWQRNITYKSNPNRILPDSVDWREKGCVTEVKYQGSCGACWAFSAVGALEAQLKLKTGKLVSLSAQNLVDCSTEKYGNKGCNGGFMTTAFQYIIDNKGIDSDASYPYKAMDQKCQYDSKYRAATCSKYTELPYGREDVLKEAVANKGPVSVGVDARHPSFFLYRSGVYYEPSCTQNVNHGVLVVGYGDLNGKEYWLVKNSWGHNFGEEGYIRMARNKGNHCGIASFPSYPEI
row,SMILES,IC50
1,Cc1nnnn1-c1ccc(S(=O)(=O)[C@@H]2C[C@@H](C(=O)NC3(C#N)CC3)N(C(=O)C3(C(F)(F)F)CC3)C2)c(C(F)(F)F)c1,0.349 nM
2,N#CC1(NC(=O)[C@@H]2C[C@@H](S(=O)(=O)c3ccc(-n4cnc(Cl)n4)cc3C(F)(F)F)CN2C(=O)C2(C(F)(F)F)CC2)CC1,0.625 nM
3,N#CC1(NC(=O)[C@@H]2C[C@@H](S(=O)(=O)c3ccc(-n4nccn4)cc3C(F)(F)F)CN2C(=O)C2(C(F)(F)F)CC2)CC1,0.506 nM
4,N#CC1(NC(=O)[C@@H]2C[C@@H](S(=O)(=O)c3ccc(-n4cnnn4)cc3C(F)(F)F)CN2C(=O)C2(C(F)(F)F)CC2)CC1,0.584 nM

# The remaining lines, values ahead:
row,IC50,SMILES
1,0.391 nM,N#CC1(NC(=O)[C@@H]2C[C@@H](S(=O)(=O)c3ccc(-n4cncn4)cc3C(F)(F)F)CN2C(=O)C2(C(F)(F)F)CC2)CC1
2,0.752 nM,N#CC1(NC(=O)[C@@H]2C[C@@H](S(=O)(=O)c3ccc(-n4cc(C(F)(F)F)cn4)cc3C(F)(F)F)CN2C(=O)C2(C(F)(F)F)CC2)CC1
